According to US7863438B2 (Yamasa Corporation, priority 2005, dated 2011):
Counter-ions that a name gives are not always drawn. Like-named read-outs stand apart in the source and are kept apart here.

Assays:
[1] = Ambient-temperature stability of PAPS lithium salt in aqueous solution or in the form of powder (HPLC determination of PAPS)
Experimental: ODS-[…] column (product of YMC) • Eluent: 50 mM Aqueous potassium dihydrogenphosphate solution • Flow rate: 0.6 mL/minute • Detection: Absorbance (A) at 270 nm • Temperature: 20° C. The present invention will next be specifically described in detail with reference to Referential Example and Example. However, it will be understood that the present invention is not limited to the Example. Quantitative determination of PAPS was performed under the aforementioned HPLC conditions. Ambient-temperature stability of a PAPS lithium salt (product of Calbiochem) was evaluated in an aqueous solution or in the form of powder as follows. […] As used herein, “percent undecomposed” or “percentage of undecomposed PAPS” is the ratio of the remaining amount of PAPS to the initial amount thereof.

[2] = powder 10 mg, desiccator (relative humidity: 10%), ambient temperature (23±2° C.), seven days

| Structure (SMILES) | Undecomposed PAPS (%) [2] | Undecomposed PAPS (%) | other results |
| --- | --- | --- | --- |
| Nc1ncnc2c1ncn2[C@@H]1O[C@H](COP(=O)(O)OS(=O)(=O)O)[C@@H](OP(=O)(O)O)[C@H]1O [Putrescine salt, 3′-phosphoadenosine 5′-phosphosulfate] | 80% |  |  |
| Nc1ncnc2c1ncn2[C@@H]1O[C@H](COP(=O)(O)OS(=O)(=O)O)[C@@H](OP(=O)(O)O)[C@H]1O [Imidazole salt, 3′-phosphoadenosine 5′-phosphosulfate] | 2.9% |  |  |
| Nc1ncnc2c1ncn2[C@@H]1O[C@H](COP(=O)(O)OS(=O)(=O)O)[C@@H](OP(=O)(O)O)[C@H]1O [L-Histidine salt, 3′-phosphoadenosine 5′-phosphosulfate] | 98% |  |  |
| Nc1ncnc2c1ncn2[C@@H]1O[C@H](COP(=O)(O)OS(=O)(=O)O)[C@@H](OP(=O)(O)O)[C@H]1O [Ethanolamine salt, 3′-phosphoadenosine 5′-phosphosulfate] | 13% |  |  |
| Nc1ncnc2c1ncn2[C@@H]1O[C@H](COP(=O)(O)OS(=O)(=O)O)[C@@H](OP(=O)(O)O)[C@H]1O [Lithium salt, 3′-phosphoadenosine 5′-phosphosulfate] | 65% |  | Undecomposed of PAPS (%) ([1]; aqueous solution 10 mg/mL, standing still at 4° C. for seven days): >99%; Undecomposed of PAPS (%) ([1]; aqueous solution 10 mg/mL, standing still at 23° C. for seven days): 96%; stability in aqueous solution (in words) ([1]; aqueous solution, seven days): relatively stable; Undecomposed of PAPS (%) ([1]; powder (10 mg), standing still at 4° C. for seven days): 89%; Undecomposed of PAPS (%) ([1]; powder (10 mg), standing still at 23° C. for seven days): 65%; decomposed (%) ([1]; powder, ambient temperature, seven days): 35%; stability in the form of powder (in words) ([1]; powder, seven days): very unstable |
| Nc1ncnc2c1ncn2[C@@H]1O[C@H](COP(=O)(O)OS(=O)(=O)O)[C@@H](OP(=O)(O)O)[C@H]1O [Piperidine salt, 3′-phosphoadenosine 5′-phosphosulfate] |  | 92% |  |
| Nc1ncnc2c1ncn2[C@@H]1O[C@H](COP(=O)(O)OS(=O)(=O)O)[C@@H](OP(=O)(O)O)[C@H]1O [Sodium salt, 3′-phosphoadenosine 5′-phosphosulfate] | 64% |  |  |
| Nc1ncnc2c1ncn2[C@@H]1O[C@H](COP(=O)(O)OS(=O)(=O)O)[C@@H](OP(=O)(O)O)[C@H]1O [L-Arginine salt, 3′-phosphoadenosine 5′-phosphosulfate] |  | 57% |  |
| Nc1ncnc2c1ncn2[C@@H]1O[C@H](COP(=O)(O)OS(=O)(=O)O)[C@@H](OP(=O)(O)O)[C@H]1O [Triethylamine salt, 3′-phosphoadenosine 5′-phosphosulfate] | 100% |  |  |
| Nc1ncnc2c1ncn2[C@@H]1O[C@H](COP(=O)(O)OS(=O)(=O)O)[C@@H](OP(=O)(O)O)[C@H]1O [Polyethyleneimine salt, 3′-phosphoadenosine 5′-phosphosulfate] | 94% |  |  |
| Nc1ncnc2c1ncn2[C@@H]1O[C@H](COP(=O)(O)OS(=O)(=O)O)[C@@H](OP(=O)(O)O)[C@H]1O [Diethylamine salt, 3′-phosphoadenosine 5′-phosphosulfate] | 96% |  |  |
| Nc1ncnc2c1ncn2[C@@H]1O[C@H](COP(=O)(O)OS(=O)(=O)O)[C@@H](OP(=O)(O)O)[C@H]1O [L-Lysine salt, 3′-phosphoadenosine 5′-phosphosulfate] |  | 27% |  |
| Nc1ncnc2c1ncn2[C@@H]1O[C@H](COP(=O)(O)OS(=O)(=O)O)[C@@H](OP(=O)(O)O)[C@H]1O [Potassium salt, 3′-phosphoadenosine 5′-phosphosulfate] | 22% |  |  |
| Nc1ncnc2c1ncn2[C@@H]1O[C@H](COP(=O)(O)OS(=O)(=O)O)[C@@H](OP(=O)(O)O)[C@H]1O [Ethylamine salt, 3′-phosphoadenosine 5′-phosphosulfate] |  | 48% |  |
| Nc1ncnc2c1ncn2[C@@H]1O[C@H](COP(=O)(O)OS(=O)(=O)O)[C@@H](OP(=O)(O)O)[C@H]1O [Trimethylamine salt, 3′-phosphoadenosine 5′-phosphosulfate] |  | 89% |  |
| Nc1ncnc2c1ncn2[C@@H]1O[C@H](COP(=O)(O)OS(=O)(=O)O)[C@@H](OP(=O)(O)O)[C@H]1O [Ammonium salt, 3′-phosphoadenosine 5′-phosphosulfate] | 4.1% |  |  |
